Data published in US20210228523A1, “MODULATORS OF SESTRIN-GATOR2 INTERACTION AND USES THEREOF” (Navitor Pharmaceuticals, Inc., priority 2017, published 2021).

Assays:
[1] = system: layer V pyramidal neurons in PFC; experiment: Whole cell patch clamp recording of 5-HT- and Hcrt-induced EPSCs in brain slices after oral dosing; format: in vivo, rat; details: Example H, NV-5138 160 mg/kg oral single dose
Procedure: Study Design: Sixteen (16) male rats weighing between 175 and 200 g were randomized into 2 study groups (n=8), following a 5-day acclimation period. On study day 0, rats received a single dose of either NV vehicle (Veh, 0.5% methylcellulose/0.1% Tween-80) or NV-5138 (160 mg/kg), by oral gavage. On day 1, 24 hrs after dosing, rats were sacrificed, and brain slices were prepared and subjected to whole cell patch clamp recording of layer V pyramidal neurons in PFC.
Preparation of Test Articles: NV-5138 (Navitor, Lot #07) was prepared by dissolving in Veh (0.5% methylcellulose/0.1% Tween-80) at a concentration of 50 mg/mL. The dosing volume based on the weight of the animal (3.2 mL/kg) was administered by oral gavage to study animals. Test articles were prepared the day of dosing.
Brain Slice Preparation: Brain slices were prepared according to published procedures (Liu, R. J. et al., J. Neurosci. 22(21): 9453-9464 (2002)). Briefly, rats were anesthetized with chloral hydrate (400 mg/kg, i.p.), in adherence to protocols approved by the Yale Animal Care and Use Committee. After decapitation, the brains were removed rapidly and placed in ice-cold (4° C.) artificial cerebrospinal fluid (ACSF) in which sucrose (252 mM) was substituted for NaCl (sucrose-ACSF) to prevent cell swelling. A block of tissue containing PFC was dissected and coronal slices (400 μm) were cut in sucrose-ACSF with an oscillating-blade tissue sheer (Leica VT1000S). After placement of the slice in a submerged recording chamber, the bath temperature was raised to 32° C. Known concentrations of drugs dissolved in ACSF, applied through a stopcock arrangement at a fast flow rate (4 mL/min), reached the slice within 7-10 s. […] A recovery period of ˜1-2 h was allowed before commencement of recording.
Electrophysiology Recording. […] Series resistance, monitored throughout the experiment, was usually between 4 and 8 MΩ. […]

mTORC1 = experiment: Western blot of pS6 in rat brain and selected peripheral organs; format: in vivo; details: Example D; NV-5138 160 mg/kg oral; 1 hr post-dose
Procedure: Study Design: Thirty (30) male rats weighing between 175 and 200 g were randomized into 3 study groups (n=10), following a 5-day acclimation period. One hour following dosing rats were sacrificed by conscious decapitation, plasma, brain and selected peripheral tissues were harvested for compound level and WB analysis. Tissues were prepared for WB to quantitate the mTORC1 substrate pS6 as a measure of mTORC1 activity.
The dosing volume based on the weight of the animal (10 mL/kg) was administered by oral gavage. Test articles were prepared the day of dosing.
Tissues Preparations: One hour following dosing rats were sacrificed by conscious decapitation, plasma, brain and peripheral tissues were harvested and immediately frozen in liquid nitrogen. Tissues were thawed and homogenized for 1 min twice using MP homogenizer in Lysis Buffer (Cell lysis buffer: 1% Triton X-100, 50 mM HEPES pH 7.4, 100 mM NaCl, 2 mM EDTA, 10 mM Beta-glycerophosphate, 10 mM Sodium pyrophosphate, and 1 protease inhibitor tab per 50 mL fresh) at 4° C. Lysates were then sonicated on ice for 20 s at 50% amplitude. The protein concentration was determined by Bradford assay and all samples were mixed with loading buffer (50 mM Tris-HCl pH 6.8, 2% SDS, 5% glycerol, 5% β-mercaptoethanol and 0.01% Bromophenol blue) and stored at −20° C. until WB analysis.
Western Blot (WB) Analysis. Equal amounts of each sample (15 μg of total protein) were loaded and separated on NuPAGE 4-12% Bis-Tris gels and transferred to PVDF membrane (Immobilon-FL PVDF membrane, Millipore) using CAPS Buffer (10 mM 3-(Cyclohexylamino)-1-propanesulfonic acid, 12.5% Ethanol pH=10). After transfer, membranes were incubated for 1 hr at room temperature in Odyssey blocking buffer (Licor). After blocking, membranes were incubated at 4° C. overnight with primary antibodies. Primary antibodies used were rabbit anti-[…] (cell signaling; #5364) at 1:1000, mouse anti-GAPDH (Sigma; #G8795) at 1:1000 and mouse anti-a-tubulin (Sigma; #T5168) at 1:10000 in Odyssey blocking buffer. The next day, membranes were washed three times in 1×TBS-Tween (25 mM Tris, pH 7.4, 3.0 mM KCl, 140 mM NaCl and 0.05% Tween-20) and incubated with dye-coupled secondary antibodies (goat anti-mouse IRdye680, and goat anti-rabbit IRdye800 from LI-COR) at 1:20000 in Odyssey blocking buffer for 30 min then wash three times in IX TBS-Tween. Signals were quantified using the Odyssey Infrared Imaging System (LI-COR Bioscience). The resulting densitometric readings were used to generate a ratio of phopho-protein to a-tubulin or GAPDH. The resulting ratio was further normalized to vehicle treated control group.

CC(C)(C[C@H](N)C(=O)O)C(F)F [NV-5138]
amplitude of 5-HT- and Hcrt-induced EPSCs (cumulative probability distribution) ([1]; FIG. 31, 24 hrs): on frequency but not amplitude | frequency of 5-HT-induced EPSCs relative to vehicle-treated rats ([1]; 24 hrs after dosing): significantly increased | frequency of Hcrt-induced EPSCs relative to vehicle-treated rats ([1]; 24 hrs after dosing): significantly increased | level of pS6 in rat epididymal fat (mTORC1): significantly increased | level of pS6 in rat heart (mTORC1): significantly increased | level of pS6 in rat kidney (mTORC1): significantly increased | level of pS6 in rat tibialis anterior (mTORC1): significantly increased | pS6 levels in liver (mTORC1): not the liver | pS6 levels in rat brain (mTORC1): significant activation of mTORC1 | pS6 levels in testes (mTORC1): significant activation
